Laboratory results as given in patent publication US8039668B2, “Naphthalene-based inhibitors of anti-apoptotic proteins” (Burnham Institute for Medical Research, priority 2008, dated 2011).
Where two headings read alike, the source gives them in different places.

How the values were obtained:
BCL-XL [1] = target: T1, BCL-XL (Homo sapiens, UniProt Q07817); assay: 1D 1H-NMR binding assay; design: key to 1D-^1H NMR: +++, Very Active; ++, Active; +, Mild; −, Weak; conditions: for 1D-^1H NMR: BCL-XL 25 μM, compound 200 μM; for 1D ^1H-NMR Binding Assay (BCL-XL): Table 9
Protocol: By observing the aliphatic region of the spectra, binding could be readily detected due to chemical shift changes in active site methyl groups of Ile, Leu, Thr, Val or Ala (region between −0.8 and 0.3 ppm). All experiments were performed with a 600 MHz spectrometer Bruker Avance 600 equipped with four rf channels and z-axis pulse-field gradients.
Target sequence in this assay (Q07817 whole entry): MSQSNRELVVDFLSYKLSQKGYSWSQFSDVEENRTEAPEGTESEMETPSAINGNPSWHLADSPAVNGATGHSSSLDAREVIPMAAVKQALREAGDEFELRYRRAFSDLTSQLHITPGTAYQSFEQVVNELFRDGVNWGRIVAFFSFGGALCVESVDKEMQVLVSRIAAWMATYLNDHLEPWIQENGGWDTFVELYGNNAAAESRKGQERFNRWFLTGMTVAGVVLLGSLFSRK

[2] = Liver microsomal stability; format: in vitro ADME, rat; conditions: for Microsomal Stability (T = 1 h): Table 6, rat liver microsomes
Description: Liver Microsomal Stability.

[3] = system: H460 human lung cell line; assay: Cell viability, ATP-LITE assay; format: cell-based; conditions: Homo sapiens
In short: (§1)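 Human cancer lines were seeded at 2000 (H460, H1299), 3000 (PC3) or 10,000 (RS11846) cells/well in F12 or RPMI1640 with 5% FBS. Compounds were added in 0.1% DMSO 24 h after seeding. Viability was read by ATP-LITE luminescence after 72 h and normalized to DMSO controls.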

[4] = system: BP3 human B-cell lymphoma cell line; assay: Annexin V-FITC and propidium iodide assay; format: cell-based; conditions: Homo sapiens, B-cell, read-out: EC50 BP3
Mcl-1 = Mcl-1 (Homo sapiens, UniProt Q07820); assay: Competitive fluorescence polarization assay (FPA), Bim BH3 peptide; format: binding
Chain of Mcl-1 (Q07820 whole entry): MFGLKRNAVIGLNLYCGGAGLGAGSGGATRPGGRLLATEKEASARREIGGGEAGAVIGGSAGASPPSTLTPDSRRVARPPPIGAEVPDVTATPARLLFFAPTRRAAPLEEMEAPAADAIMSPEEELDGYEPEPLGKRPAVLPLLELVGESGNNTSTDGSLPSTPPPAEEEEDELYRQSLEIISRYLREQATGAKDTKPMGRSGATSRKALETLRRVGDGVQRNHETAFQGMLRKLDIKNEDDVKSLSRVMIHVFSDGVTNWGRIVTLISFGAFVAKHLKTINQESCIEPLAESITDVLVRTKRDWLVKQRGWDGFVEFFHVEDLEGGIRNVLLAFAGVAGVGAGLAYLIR

BCL-XL [5] = target: T1, BCL-XL; assay: Isothermal titration calorimetry (ITC); format: binding
Protocol: Titrations were performed using a VP-ITC or ITC200 calorimeter from Microcal (Northampton, Mass.). BCL-XL was used at concentrations between 25 and 100 μM in 20 mM sodium phosphate buffer (pH 7.4) and 5-10% DMSO. Titrants were used at concentrations 10-15 fold of that of the protein in the same buffer. Titrations were carried out at 25° C. Data were analyzed using Microcal Origin software provided by the ITC manufacturer (Microcal, Northampton, Mass.).
Target sequence in this assay (Q07817 whole entry): as the sequence (Q07817 whole entry) above

[6] = system: human lymphoma RS11846 cell line; assay: Apoptosis, Annexin V-FITC and propidium iodide assay; format: cell-based; conditions: Homo sapiens
Bcl-2 = Bcl-2 (Homo sapiens, UniProt P10415); assay: Competitive fluorescence polarization assay (FPA), Bim BH3 peptide; format: binding
Chain of Bcl-2 (P10415 whole entry): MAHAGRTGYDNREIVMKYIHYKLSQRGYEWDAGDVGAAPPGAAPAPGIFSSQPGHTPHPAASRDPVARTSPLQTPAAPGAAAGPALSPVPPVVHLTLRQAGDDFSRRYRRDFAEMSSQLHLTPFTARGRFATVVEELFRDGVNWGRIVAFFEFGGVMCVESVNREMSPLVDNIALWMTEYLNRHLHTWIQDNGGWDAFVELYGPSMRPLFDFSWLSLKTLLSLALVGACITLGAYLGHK

H1299 cell line = assay: Cell viability, ATP-LITE assay; format: cell-based, human; conditions: Homo sapiens
In short: as §1

PC3ML cells = assay: Cell viability, ATP-LITE assay; format: cell-based, human; conditions: Homo sapiens, PC3-ML
In short: as §1

B6Bcl-2 transgenic mice = conditions: for Tox: Bcl-2 transgenic mouse, single ip injection 72 μmol/kg; for percentage of maximum reduction in spleen weight (maximal biological activity) / spleen weight reduction: single ip 72 μmol/kg; for percentage of maximum reduction in spleen weight (maximal biological activity): maximum shrinkage no more than 50%; for spleen weight reduction: single mouse
Protocol: Transgenic mice expressing BCL-2 have been described as the B6 line. The BCL-2 transgene res a minigene version of a t(14;18) translocation in which the human BCL-2 gene is fused with the immunoglobulin heavy-chain (IgH) locus and associated IgH enhancer. The transgene was propagated on the Balb/c background.
After 24 hours, B6BCL2 mice were sacrificed by intraperitoneal injection of lethal dose of Avertin. Spleen was removed and weighed. […] Spleen tissue was fixed in z-FIX for 3 days and rinsed in PBS, and saved for histological analysis of spleen (H&E staining and TUNEL assay).

Bfl-1 = target: T2, Bfl-1 (Homo sapiens, UniProt Q16548); assay: Competitive fluorescence polarization assay (FPA); format: binding
T2 sequence (Q16548 1-175): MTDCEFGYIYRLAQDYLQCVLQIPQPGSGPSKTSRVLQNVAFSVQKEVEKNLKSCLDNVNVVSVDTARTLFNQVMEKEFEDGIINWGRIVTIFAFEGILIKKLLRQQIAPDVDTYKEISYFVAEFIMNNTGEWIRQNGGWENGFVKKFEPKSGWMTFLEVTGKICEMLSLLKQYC

[7] = system: Bax/Bak double knockout mouse embryonic fibroblast cells (MEF/DKO); assay: FITC-Annexin V/PI cytotoxicity in Bax/Bak double knockout cells; format: cell-based; conditions: 10 μM
Protocol: MEF/WT and MEF/DKO cells were seeded in 24-well plate at a seeding density of half a million per well (in 1 ml of DMEM medium supplemented by 10% FCS). […] On the following day, floating cells were pooled with adherent cells harvested after brief incubation with 0.25% Trypsin/EDTA solution (Gibco/In-Vitrogen Inc.). Cells were centrifuged and supernatant was discarded, and cell pellet was re-suspended with 0.2 ml of Annexin-V binding buffer, followed by addition of 1 μl Annexin-FITC and 1 μl PI (propidium iodide). The percentage of viable cells was determined by a 3-color FACSort instrument and data analyzed by Flow-Jo program, scoring Annexin V-negative, PI-negative as viable cells.

BCL-XL [8] = target: T1, BCL-XL; assay: Competitive fluorescence polarization assay (FPA), Bak BH3 peptide; format: binding; design: 100 nM GST-BCL-XL ΔTM protein
Protocol: For competitive binding assays, 100 nM GST-BCL-XL ΔTM protein was preincubated with the tested compound at varying concentrations in 47.5 μL PBS (pH=7.4) in 96-well black plates at room temperature for 10 min, then 2.5 μL of 100 nM FITC-labeled Bak BH3 peptide was added to produce a final volume of 50 μL. The wild-type and mutant Bak BH3 peptides were included in each assay plate as positive and negative controls, respectively. […] IC50 was determined by fitting the experimental data to a sigmoidal dose-response nonlinear regression model (SigmaPlot 10.0.1, Systat Software, Inc., San Jose, Calif., USA). Data reported are mean of three independent experiments±standard error (SE). […] Fluorescence polarization was measured after 10 min.
Target sequence in this assay (Q07817 1-209 limits assumed): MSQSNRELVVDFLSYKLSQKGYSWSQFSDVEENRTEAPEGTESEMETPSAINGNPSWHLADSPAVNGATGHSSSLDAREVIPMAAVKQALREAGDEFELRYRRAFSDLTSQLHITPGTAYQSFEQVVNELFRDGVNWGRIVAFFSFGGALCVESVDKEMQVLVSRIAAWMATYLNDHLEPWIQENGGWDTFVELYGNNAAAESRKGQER

Plasma stability = format: in vitro ADME, rat; conditions: for Plasma stability (T = 1 h): Table 6, rat plasma
Protocol: Plasma Stability. A 20 μL aliquot of a 10 mM solution in DMSO of the test compound was added to 2.0 mL of heparinized rat plasma (Lampire, P1-150N) to obtain a 100 μM final solution. The mixture was incubated for 1 h at 37.5° C. Aliquots of 100 μL were taken (0, 30 min, 1 h) and diluted with 200 μL of MeOH containing internal standard.

RS11846 cell line = assay: Cell viability, ATP-LITE assay; format: cell-based; conditions: Homo sapiens, Table 9; read-out: RS11846 EC50 (ATP-LITE assay)
In short: as §1

[9] = PAMPA cell membrane permeability; format: in vitro ADME; conditions: Table 11; Low/Medium, not defined
Description: PAMPA is parallel artificial membrane permeation assay.

[10] = NCI-H460, Table 3, ATP-LITE assay, read-out: EC50 H460
[11] = heading: EC50 BP3, Table 3, Annexin V-FITC and propidium iodide assay
[12] = Table 3, Annexin V-FITC and propidium iodide assay, heading: EC50 RS11846, read-out: EC50 RS11846
[13] = NCI-H1299, heading: EC50 H1299, Table 3, ATP-LITE assay, read-out: EC50 H1299
[14] = Table 3, ATP-LITE assay, heading: EC50 PC3ML, read-out: EC50 PC3ML
[15] = Table 3, Annexin V-FITC and propidium iodide assay
[16] = NCI-H460, Table 9, read-out: H460 EC50
[17] = Table 9, read-out: RS11846 EC50 (Annexin V- and propidium iodide assay)
[18] = NCI-H1299, Table 9, read-out: H1299 EC50
[19] = Table 9, read-out: FPA IC50 (BCL-XL)

Row | SMILES | 1D-^1H NMR (BCL-XL [1]; Table 3) | Microsomal Stability (T = 1 h) [2] [%] | EC50 [3, 10] [nM] | IC50 (Mcl-1) [nM] | Kd (BCL-XL [5]) [nM] | EC50 [6, 12] [nM] | IC50 (Bcl-2) [nM] | EC50 (H1299 cell line; [13]) [nM] | EC50 (PC3ML cells; [14]) [nM] | Tox (B6Bcl-2 transgenic mice) | IC50 (Bfl-1) [nM] | MEF/DKO cells killed [7] | IC50 (BCL-XL [8]; read-out: IC50 FPA Bcl-XL) [nM] | Plasma stability (T = 1 h) (Plasma stability) [%] | 1D ^1H-NMR Binding Assay (BCL-XL) (BCL-XL [1]) | Cell Permeability [9] | further results
1 | Cc1cc2c(C(=O)NC(C)c3ccc(Cl)cc3)c(O)c(O)cc2c(O)c1-c1c(C)cc2c(C(=O)NC(C)c3ccc(Cl)cc3)c(O)c(O)cc2c1O (stereo not drawn) [Compound 8k, N^5,N^5′-bis(1-(4-chlorophenyl)ethyl)-1,1′,6,6′,7,7′-hexahydroxy-3,3′-dimethyl-2,2′-binaphthyl-5,5′-dicarboxamide] | +++ | 71 | 500 | 230 | 110 | 5500 | 490 | 3200 | 5000 | 4+ | 400 | 20-35% | 270 | 94 |  |  | EC50 [4, 11]: 1500 nM; percentage of maximum reduction in spleen weight (maximal biological activity) (B6Bcl-2 transgenic mice): 85-95%; spleen weight reduction (B6Bcl-2 transgenic mice): more than 40%
2 | Cc1cc2c(C(=O)NCC3CCCCC3)c(O)c(O)cc2c(O)c1-c1c(C)cc2c(C(=O)NCC3CCCCC3)c(O)c(O)cc2c1O [Compound 8m, N^5,N^5′-bis(cyclohexylmethyl)-1,1′,6,6′,7,7′-hexahydroxy-3,3′-dimethyl-2,2′-binaphthyl-5,5′-dicarboxamide] | +++ | 90 | 410 | 780 | 850 | 4900 | 710 | 4800 | 3700 | 4+ | 2000 | 20-35% | 1100 | 89 |  |  | degraded after 1 hour incubation in rat microsomal preparations ([2]; 1 hour): 10%; EC50 [4, 15]: 900 nM; degraded after 1 hour incubation in rat plasma (Plasma stability; 1 hour): 11%
3 | Cc1cc2c(C(=O)NCCc3cccc(Cl)c3)c(O)c(O)cc2c(O)c1-c1c(C)cc2c(C(=O)NCCc3cccc(Cl)c3)c(O)c(O)cc2c1O [Compound 8p, N^5,N^5′-bis(3-chlorophenethyl)-1,1′,6,6′,7,7′-hexahydroxy-3,3′-dimethyl-2,2′-binaphthyl-5,5′-dicarboxamide] | +++ | 90 | 990 | 3200 |  | 4600 | 4400 | 7800 | 3200 | 4+ |  | 20-35% | 6300 |  |  |  | EC50 [4, 15]: 410 nM; percentage of maximum reduction in spleen weight (maximal biological activity) (B6Bcl-2 transgenic mice): 85-95%; spleen weight reduction (B6Bcl-2 transgenic mice): more than 40%
4 | Cc1cc2c(C(=O)NC3Cc4ccccc4C3)c(O)c(O)cc2c(O)c1-c1c(C)cc2c(C(=O)NC3Cc4ccccc4C3)c(O)c(O)cc2c1O [Compound 8s, N^5,N^5′-bis(2,3-dihydro-1H-inden-2-yl)-1,1′,6,6′,7,7′-hexahydroxy-3,3′-dimethyl-2,2′-binaphthyl-5,5′-dicarboxamide] | ++ |  | 940 | 350 |  | 4100 | 700 | 7100 | 3000 |  | 670 |  | 850 |  |  |  | EC50 [4, 11]: 1100 nM
5 | Cc1cc2c(CCc3ccccc3)c(O)c(O)cc2c(O)c1-c1c(C)cc2c(CCc3ccccc3)c(O)c(O)cc2c1O [Compound 12e, 3,3′-dimethyl-5,5′-diphenethyl-2,2′-binaphthyl-1,1′,6,6′,7,7′-hexaol] |  | 89 |  | 830 | 410 |  | 480 |  |  | 0 | 5000 | 20-35% | 3500 | 80 |  |  | 1D-^1H NMR (BCL-XL [1]; Table 4): +; EC50 ([3]; NCI-H460, read-out: EC50 H460): 920 nM; EC50 [4]: 4140 nM; EC50 ([6]; read-out: EC50 RS11846, Annexin V-FITC and propidium iodide assay): 9800 nM; EC50 (H1299 cell line; NCI-H1299, read-out: EC50 H1299): 580 nM; EC50 (PC3ML cells; read-out: EC50 PC3ML, ATP-LITE assay): 2400 nM; signs of toxicity (B6Bcl-2 transgenic mice; 72 μmol/kg and even 120 μmol/kg): no significant signs of toxicity
6 | Cc1cc2c(C(=O)C3CCCC3)c(O)c(O)cc2c(O)c1-c1c(C)cc2c(C(=O)C3CCCC3)c(O)c(O)cc2c1O [Compound VI, (1,1′,6,6′,7,7′-hexahydroxy-3,3′-dimethyl-2,2′-binaphthyl-5,5′-diyl)bis(cyclopentylmethanone)] |  |  |  |  |  |  |  |  |  |  |  |  |  |  | + | Low | EC50 [3, 16]: 1100 nM; EC50 (RS11846 cell line): 4000 nM; EC50 [6, 17]: 4500 nM; EC50 (H1299 cell line; [18]): 3100 nM; EC50 (PC3ML cells; Table 9, read-out: PC3ML EC50): 3400 nM; IC50 (BCL-XL [8]; [19]): 450 nM
7 | Cc1cc2c(C(=O)c3cccc4ccccc34)c(O)c(O)cc2c(O)c1-c1c(C)cc2c(C(=O)c3cccc4ccccc34)c(O)c(O)cc2c1O [Compound VIII, (1,1′,6,6′,7,7′-hexahydroxy-3,3′-dimethyl-2,2′-binaphthyl-5,5′-diyl)bis(naphthalen-1-ylmethanone)] |  |  |  |  |  |  |  |  |  |  |  |  |  |  | + | Low | EC50 [3, 16]: 590 nM; EC50 (RS11846 cell line): 1800 nM; EC50 [6, 17]: 3000 to 5500 nM; EC50 (H1299 cell line; [18]): 2400 nM; EC50 (PC3ML cells; Table 9, read-out: PC3ML EC50): 3000 nM; IC50 (BCL-XL [8]; [19]): 160 nM
8 | Cc1cc2c(C(=O)C(C)(C)C)c(O)c(O)cc2c(O)c1-c1c(C)cc2c(C(=O)C(C)(C)C)c(O)c(O)cc2c1O [Compound XVIII, 1,1′-(1,1′,6,6′,7,7′-hexahydroxy-3,3′-dimethyl-2,2′-binaphthyl-5,5′-diyl)bis(2,2-dimethylpropan-1-one)] |  |  |  |  |  |  |  |  |  |  |  |  |  |  | ++ | Medium | EC50 ([6]; read-out: RS11846 EC50 (Annexin V- and propidium iodide assay), Table 9): 14700 nM
